The subject of the experiment is human neuroblastoma line BE(2)-M17 (M17) cells. The experiment can be described thus: Measurement of Fe efflux from cells. Type of experiment: cell-based. Particulars: M17 cells pre-loaded with 57Fe, compound 20 μM for 2 h, percentage increase of Fe in media relative to media without compound, read-out: % Fe Efflux Range. On the procedure: Method I: Measurement of Fe Efflux from Cells
Compounds of the current invention were assessed for their ability to efflux iron (Fe) from a cell using the following protocol.
The human neuroblastoma line BE(2)-M17 (M17) cell cultures were acquired from Sigma Aldrich (Catalogue #: 95011816). M17 Cells were maintained in Opti-MEM reduced serum media supplemented with 10% fetal bovine serum (Bovogen, SFBSF) and passaged twice weekly. Cells were cultured at 37° C. in the presence of 5% CO2. Culture supplies were sourced from Thermo Fisher unless otherwise stated.
A solution of ^57Fe cold isotope was prepared by dissolving ^57Fe metal (>95% enrichment, Trace Sciences International) in concentrated HCl to give a final concentration of 573 mM. From this master solution, a 10 mM working solution was prepared in sterile water. The working solution was used within two months of preparation.
M17 cells were loaded with iron initially by seeding into 48-well plates at a density of 0.15×10^6 cells per well in 0.5 mL media. After 48 h, old media was discarded. Fresh media was supplemented with 20 μM ^57Fe isotope, from the 10 mM ^57Fe working solution. Cells received 0.2 mL of this ^57Fe enriched media and were returned to the incubator for 20 h. The ability of experimental compounds to efflux iron was determined by the dissolution of compounds in DMSO and diluted in Hanks' Balanced Salt Solution (HBSS) for treatment of M17 cells. After ^57Fe incubation, cells were rinsed twice with HBSS and treated with 0.15 mL trial compound for 2 h at a concentration of 20 μM. All assays included a relevant vehicle (0.4%-0.8% DMSO) as well as a positive control (20 μM). Following the treatment period, 0.1 mL of media was collected from cells and the extracellular ^57Fe content was analysed via inductively coupled mass spectrometry (ICP-MS, Agilent 7700x series instrument).
To perform this protocol the following supplies were purchased from Sigma Aldrich: anhydrous dimethyl sulfoxide (DMSO, Catalogue #: 276855), Hanks' Balanced Salt Solution supplemented with 20 mM HEPES and 4.2 mM Sodium Bicarbonate (HBSS, pH: 7.4, Catalogue #: H1387).
After 2 h the Fe levels in the media were measured and the increase determined as a percentage increase relative to the cell media in the absence of the compound.

A value given as a limit tells only on which side of the number the result lay.

As for `COC(=O)c1ccccc1-c1nc(-c2ccccc2O)c2ccccn12` [Compound 20], the activation at 20 µM was < 30%.

Consider `Cc1ccc(O)c(-c2nc(-c3ccncc3O)c3cccnn23)c1` [Compound 182], for which the activation at 20 µM fell in the range of 30 to 100%.

For `Oc1c(F)cccc1-c1nc(-c2cccc(Br)c2O)c2ccccn12` [Compound 31], the activation at 20 µM is < 30%.

As to `COc1ccncc1-c1nc(-c2cccc(C)c2O)n2ccccc12` [Compound 163], the activation at 20 µM is < 30%.

Turning to `Oc1cccnc1-c1nc(-c2cccc(F)c2O)n2ncccc12` [Compound 121], the activation at 20 µM was > 150%.

For the compound `Oc1ccncc1-c1nc(-c2cccc(F)c2O)n2ccccc12` [Compound 162], the activation at 20 µM fell in the range of 30 to 100%.

For the compound `Oc1cccnc1-c1nc(-c2c(O)cccc2F)n2ccccc12` [Compound 79], the activation at 20 µM is 100 to 150%.

As to `Oc1ccc(Cl)cc1-c1nc(-c2ncccc2O)c2ccccn12` [Compound 92], the activation at 20 µM was 100 to 150%.

As for `Oc1cnccc1-c1nc(-c2ccccc2O)n2cccnc12` [Compound 185], the activation at 20 µM is 100 to 150%.

On to `Oc1ccccc1-c1nc(-c2cccc(F)c2O)n2ccccc12` [Compound 10, 2-Fluoro-6-(1-(2-hydroxyphenyl)imidazo[1,5-a]pyridin-3-yl)phenol], for which the activation at 20 µM is 30 to 100%.

Regarding `Cc1ccc(O)c(-c2nc(-c3ncccc3O)c3cccnn23)c1` [Compound 123], the activation at 20 µM was > 150%.

Regarding `COc1cccnc1-c1nc(-c2c(O)cccc2F)n2ccccc12` [Compound 52], the activation at 20 µM was < 30%.

`Oc1c(F)cccc1-c1nc(-c2cccc(Cl)c2O)n2ccccc12` [Compound 41, 2-Chloro-6-(1-(3-fluoro-2-hydroxyphenyl)imidazo[1,5-a]pyridin-3-yl)phenol]: the activation at 20 µM is 30 to 100%.

For `Oc1cc(Cl)ccc1-c1nc(-c2ncccc2O)c2ccccn12` [Compound 93], the activation at 20 µM was 30 to 100%.

For the compound `Oc1cc(C(F)(F)F)ccc1-c1nc(-c2cccc(F)c2O)n2ccccc12` [Compound 98, 2-(3-(3-Fluoro-2-hydroxyphenyl)imidazo[1,5-a]pyridin-1-yl)-5-(trifluoromethyl)phenol], the activation at 20 µM was < 30%.

Turning to `Cc1cccc(-c2nc(-c3ccccc3O)c3ncccn23)c1O` [Compound 108], the activation at 20 µM was < 30%.

For the compound `COC(=O)c1ccccc1-c1nc(-c2ncccc2O)c2ccccn12` [Compound 126], the activation at 20 µM is < 30%.

Take `Cc1cccc(-c2nc(-c3ccncc3O)c3cnccn23)c1O` [Compound 177]: the activation at 20 µM is > 150%.

`Oc1cccnc1-c1nc(-c2cc(F)cc(F)c2O)n2ccccc12` [Compound 84, 2-(3-(3,5-Difluoro-2-hydroxyphenyl)imidazo[1,5-a]pyridin-1-yl)pyridin-3-ol]: the activation at 20 µM was > 150%.

As to `Oc1ccccc1-c1nc(-c2cc(Cl)cc(Cl)c2O)n2ccccc12` [Compound 7], the activation at 20 µM was < 30%.

Take `Oc1cnccc1-c1nc(-c2cccc(F)c2O)n2ccccc12` [Compound 111]: the activation at 20 µM lay in the range of 100 to 150%.

As for `COc1ccncc1-c1nc(-c2cccc(F)c2O)n2ccccc12` [Compound 157], the activation at 20 µM is < 30%.

For the compound `Oc1ccc(F)cc1-c1nc(-c2cccnc2O)c2ccccn12` [Compound 144, 3-(3-(5-Fluoro-2-hydroxyphenyl)imidazo[1,5-a]pyridin-1-yl)pyridin-2-ol], the activation at 20 µM is 100 to 150%.

`Oc1cccnc1-c1nc(-c2cccc(Cl)c2O)n2ncccc12` [Compound 122]: the activation at 20 µM was > 150%.

As for `Oc1cc(F)c(Br)cc1-c1nc(-c2cccc(F)c2O)n2ccccc12` [Compound 44], the activation at 20 µM fell in the range of 30 to 100%.

Regarding `Oc1cc(F)c(Br)cc1-c1nc(-c2c(O)cccc2Cl)n2ccccc12` [Compound 46], the activation at 20 µM is < 30%.

Regarding `Oc1ccncc1-c1nc(-c2c(O)cccc2Cl)n2ccccc12` [Compound 172], the activation at 20 µM lay within 30 to 100%.

For the compound `Oc1ncccc1-c1nc(-c2cccc(F)c2O)n2ccccc12` [Compound 148], the activation at 20 µM was 30 to 100%.

For the compound `Oc1ccccc1-c1nc(-c2c(O)cccc2F)n2ccccc12` [Compound 18, 3-Fluoro-2-(1-(2-hydroxyphenyl)imidazo[1,5-a]pyridin-3-yl)phenol], the activation at 20 µM is 30 to 100%.

As for `Oc1ccccc1-c1nc(-c2cc(Cl)cc(Cl)c2)n2ccccc12` [Compound 21], the activation at 20 µM is < 30%.

For the compound `Oc1ccncc1-c1nc(-c2cc(F)ccc2O)n2ccccc12` [Compound 159], the activation at 20 µM fell in the range of 30 to 100%.

For `Oc1ccc(Cl)cc1-c1nc(-c2cccnc2O)c2ccccn12` [Compound 149], the activation at 20 µM lay in the range of 30 to 100%.

As to `Oc1ccccc1-c1nc(-c2ncccc2O)n2ccccc12` [Compound 95, 2-(1-(2-Hydroxyphenyl)imidazo[1,5-a]pyridin-3-yl)pyridin-3-ol], the activation at 20 µM was 30 to 100%.

`Oc1cc(F)ccc1-c1nc(-c2c(O)cccc2F)n2ccccc12` [Compound 49]: the activation at 20 µM was < 30%.

With `COC(=O)c1ccc(-c2nc(-c3ccccc3O)c3ccccn23)cc1` [Compound 25], the activation at 20 µM was < 30%.

On to `CCN(CC)c1ccc(-c2nc(-c3cccnc3O)c3ccccn23)c(O)c1` [Compound 146], for which the activation at 20 µM was 30 to 100%.

For `N#Cc1ccccc1-c1nc(-c2ccccc2O)c2ccccn12` [Compound 16, 2-(1-(2-Hydroxyphenyl)imidazo[1,5-a]pyridin-3-yl)benzonitrile], the activation at 20 µM is < 30%.

Regarding `Cc1ccc(O)c(-c2nc(-c3ccncc3O)c3ncccn23)c1` [Compound 186], the activation at 20 µM fell in the range of 30 to 100%.

For `Oc1cccnc1-c1nc(-c2cc(Cl)cc(Cl)c2O)n2ccccc12` [Compound 85], the activation at 20 µM was 30 to 100%.

For the compound `COc1cnccc1-c1nc(-c2ccccc2O)c2ccccn12` [Compound 125], the activation at 20 µM is < 30%.

As for `Oc1ccc(F)cc1-c1nc(-c2ncccc2O)c2ccccn12` [Compound 83], the activation at 20 µM was in the range of 100 to 150%.

On to `Oc1cnccc1-c1nc(-c2cc(Cl)ccc2O)n2ccncc12` [Compound 179], for which the activation at 20 µM was > 150%.

Take `COc1ccccc1-c1nc(-c2ccc(Cl)cc2O)n2ccc(C)cc12` [Compound 100, 5-Chloro-2-(1-(2-methoxyphenyl)-7-methylimidazo[1,5-a]pyridin-3-yl)phenol]: the activation at 20 µM was < 30%.

With `Cc1cccc(-c2nc(-c3cccnc3O)c3ccccn23)c1O` [Compound 142], the activation at 20 µM is 30 to 100%.

With `Oc1ccncc1-c1nc(-c2cccc(Cl)c2O)n2ccccc12` [Compound 171], the activation at 20 µM fell in the range of 30 to 100%.

As for `Oc1ccncc1-c1nc(-c2ccccc2O)n2ccccc12` [Compound 158], the activation at 20 µM fell in the range of 30 to 100%.

For the compound `COc1cccnc1-c1nc(-c2cc(F)ccc2O)n2ccccc12` [Compound 56, 4-Fluoro-2-(1-(3-methoxypyridin-2-yl)imidazo[1,5-a]pyridin-3-yl)phenol], the activation at 20 µM is 30 to 100%.

`Oc1cc(Cl)ccc1-c1nc(-c2cccnc2O)c2ccccn12` [Compound 143]: the activation at 20 µM is < 30%.

Take `Cc1ccc(O)c(-c2nc(-c3c(O)cccc3F)n3ccccc23)c1` [Compound 87]: the activation at 20 µM is < 30%.

As to `Oc1ccccc1-c1nc(-c2ncccc2O)c2cccnn12` [Compound 120, 2-(7-(2-Hydroxyphenyl)imidazo[1,5-b]pyridazin-5-yl)pyridin-3-ol], the activation at 20 µM lay within 100 to 150%.

Regarding `Oc1cc(F)ccc1-c1nc(-c2cccc(Cl)c2O)n2ccccc12` [Compound 63], the activation at 20 µM is < 30%.

As for `Oc1cnccc1-c1nc(-c2ccccc2O)n2ccccc12` [Compound 110], the activation at 20 µM is > 150%.

In the case of `Oc1cnccc1-c1nc(-c2cccc(Cl)c2O)n2ccccc12` [Compound 112], the activation at 20 µM lay within 100 to 150%.

With `CN(C)Cc1cccc(-c2nc(-c3cccnc3O)c3ccccn23)c1O` [Compound 168], the activation at 20 µM was < 30%.

`Oc1ccccc1-c1nc(-c2cccc(F)c2O)c2ccccn12` [Compound 37]: the activation at 20 µM is < 30%.

Regarding `Oc1ccc(Br)cc1-c1nc(-c2ccccc2)n2ccccc12` [Compound 6], the activation at 20 µM is < 30%.

For the compound `Oc1ncccc1-c1nc(-c2cccc(Cl)c2O)n2ccccc12` [Compound 150], the activation at 20 µM lay within 30 to 100%.

In the case of `Oc1ccccc1-c1nc(-c2cccc(Cl)c2)n2ccccc12` [Compound 27], the activation at 20 µM is < 30%.

As to `Oc1cccc(Cl)c1-c1nc(-c2cccc(F)c2O)c2ccccn12` [Compound 39], the activation at 20 µM was in the range of 30 to 100%.

Take `COc1ccncc1-c1nc(-c2c(O)cccc2F)n2ccccc12` [Compound 156]: the activation at 20 µM was < 30%.

For the origin of these results see US10941143B2, “Imidazo [1,5-a]pyridine compounds and their use” (Alterity Therapeutics Limited, priority 2019, dated 2021).
